Test results as given in patent publication US11039613B2, “Germination promoters” (SYNGENTA PARTICIPATIONS AG, priority 2017, dated 2021).
Read-outs that look alike come from different tables or passages of the source.

Assays:
NK Falkone corn seeds [1] = assay: Corn seed germination, cold stress (15° C.); assay type: in vivo; conditions: for T50 (% vs control): control T50 = 110 hours; for Slope compared with closest prior art compound P2 / T50 compared with closest prior art compound P2: vs P2
Procedure: The effect of compounds of Formula (II-1 and III-1) on the germination of NK Falkone corn seeds under salt and cold stress was evaluated as follows.
(§1) NK Falkone corn seeds (harvested in 2015) were sorted by size using a sieve to keep away round seeds.
(§2) The corn seeds were placed in 24 well plates (each plate was considered as one experimental unit or replicate). Germination was initiated by the addition of 200 μl of distilled water containing 0.5% DMSO per well. 8 replicates (i.e. 8 plates) were used for each treatment characterization. Plates were sealed using seal foil (Polyolefin Art. Nr. 900320) from HJ-BIOANALYTIK. All plates were placed in two carrousels in a climatic chamber at 15° C. The experiment was laid out in a completely randomized design in climatic chamber with 60% Relative Humidity.
(§3) Germination was followed over time by taking photographs at different time points. Image analysis was performed automatically with a macro which was developed using the Image J software. A dynamic analysis of germination was carried out by fitting a logistic curve. Three parameters were calculated from the logistic curve: the T50; the slope and the plateau. All three parameters have a high agronomical relevance and are key requirements to ensure a good early crop-establishment. The T50 and slope for a selection of compounds are outlined in Table 2 below. All the values are expressed as percentages compared to an untreated control. All the three parameters are calculated considering 8 replicates and the kinetic parameters are separately determined for each germination curve. Data in bold indicate germination enhancing statistically significant differences between treated seeds and untreated control (p<0.05). T50 corresponds to the time needed for half of the seed population to germinate. Higher negative %-values indicate faster germination. Slope indicates how synchronous the germination of the seed population is. Positive values indicate steeper curve. The steeper the curve, the better and more uniform the germination is.

Hydrolytic stability = assay type: physicochemical; conditions: for half-life: aqueous buffer/acetonitrile solution, pH 9, pH 9, buffer/acetonitrile
Procedure: Prior to conducting the individual hydrolytic stability assays, stock solutions containing 1000 ppm of each test compound (i.e. compounds III-1 and P1) were prepared in acetonitrile.
The reagents used in the assays were prepared as follows. A 20 mM buffer solution was prepared from a stock solution of 20 mM mixed acetate, borate and phosphate buffer and the pH adjusted to 7 or 9 as required.
Test solutions were prepared in LC vials for each test compound in the following manner: Hydrolytic Stability: Buffer (750 μL)+acetonitrile (250 μL)+compound stock solution (2 to 40 μL).
The buffers were initially dispensed into separate glass LC vials, placed into an autosampler complete with thermostat set at 40° C. and allowed to equilibrate for 30 minutes prior to starting the individual assays.
Analysis was carried out on Waters LCMS systems under reverse phase conditions using 10 cm C18 columns and acetonitrile (HPLC grade) acidified water (0.2% formic acid) mobile phase at a flow rate of 1 ml min-1. Peak detection was at the optimum wavelength (230-250 nm) and peak areas were used for quantification
Reactions were initiated by addition of the compound solution and monitored through a series of repeat injections made directly from the vial into the HPLC system at regular time intervals. Initial and subsequent measurements of peak area attributable to the test compound were used to fit exponential half-lives and calculate first-order rate constants.
Consequently, the percentage of compound remaining was recorded at the last assessment time.

NK Falkone corn seeds [2] = assay: Corn seed germination, salt (NaCl, 100 mM) and cold stresses (15° C.); assay type: in vivo; conditions: cold 15° C. and salt 100 mM NaCl
Procedure: as §1, §2, §3
(§4) The effect of compounds of Formula (III-1 and P1) on the germination of NK Falkone corn seeds under salt and cold stress was evaluated as follows.
The experimental protocol was the same as in Example B1, except that germination was initiated by the addition of 200 μl of distilled water containing 0.5% DMSO and 100 mM NaCl per well.

NK Falkone corn seeds [3] = assay: Corn seed germination, salt (NaCl, 100 mM) stress and optimal temperature (23° C.); assay type: in vivo; conditions: salt (NaCl) stress
Procedure: as §1
as §2, with “Germination was initiated by the addition of 200 μl of distilled water containing 0.5% DMSO per well.” left out
as §3
The experimental protocol was the same as in Example B1, except that the plates were placed in a climatic chamber at 23° C.

NK Falkone corn seeds [4] = assay: Corn seed germination, osmotic stress (PEG 2%) and cold stress (15° C.); assay type: in vivo; conditions: osmotic (PEG 2%) and cold 15° C.
Procedure: as §1, §2, §3, §4
The experimental protocol was the same as in Example B1, except that germination was initiated by the addition of 200 μl of distilled water containing 0.5% DMSO and 2% PEG per well.

For `CC1=C[C@H](O/C=C2/C(=O)O[C@@H]3Cc4ccccc4[C@H]23)N(c2cc(C(F)(F)F)cc(C(F)(F)F)c2)C1=O` [II-1a], the “Slope (% vs control)” value (NK Falkone corn seeds [1]; Rate 10 μM) was 18.70 % vs control, the “T50 (% vs control)” value (NK Falkone corn seeds [1]; Rate 10 μM) was −2.70 % vs control and the “Slope (% vs control)” value (NK Falkone corn seeds [1]; Rate 50 μM) was 68.50 % vs control. For the same compound, the “T50 (% vs control)” value (NK Falkone corn seeds [1]; Rate 50 μM) was −5.30 % vs control, the “Slope (% vs control)” value (NK Falkone corn seeds [1]; Rate 250 μM) was 37.00 % vs control and the “T50 (% vs control)” value (NK Falkone corn seeds [1]; Rate 250 μM) was −3.20 % vs control. For the same compound, the “Slope compared with closest prior art compound P2” value (NK Falkone corn seeds [1]; at equivalent rates) was “higher slope” and the “T50 compared with closest prior art compound P2” value (NK Falkone corn seeds [1]; at equivalent rates) was “lower T50”.
For `CC1=C[C@@H](O/C=C2/C(=O)O[C@@H]3Cc4ccccc4[C@H]23)N(c2cc(C(F)(F)F)cc(C(F)(F)F)c2)C1=O` [II-1b], the “Slope (% vs control)” value (NK Falkone corn seeds [1]; Rate 10 μM) was 19.20 % vs control, the “T50 (% vs control)” value (NK Falkone corn seeds [1]; Rate 10 μM) was −2.50 % vs control and the “Slope (% vs control)” value (NK Falkone corn seeds [1]; Rate 50 μM) was 41.40 % vs control. For the same compound, the “T50 (% vs control)” value (NK Falkone corn seeds [1]; Rate 50 μM) was −5.10 % vs control, the “Slope (% vs control)” value (NK Falkone corn seeds [1]; Rate 250 μM) was 62.40 % vs control and the “T50 (% vs control)” value (NK Falkone corn seeds [1]; Rate 250 μM) was −5.90 % vs control. The “Slope compared with closest prior art compound P2” value (NK Falkone corn seeds [1]; at equivalent rates) was “higher slope” and the “T50 compared with closest prior art compound P2” value (NK Falkone corn seeds [1]; at equivalent rates) was “lower T50”.
For `CC1=CC(O/C=C2/C(=O)NC3Cc4ccccc4C23)N(c2cc(C(F)(F)F)cc(C(F)(F)F)c2)C1=O` (stereo not shown) [III-1, (1E)-[[1-[3,5-bis(trifluoromethyl)phenyl]-4-methyl-1-oxo-2H-pyrrol-2-yl]oxymethylene]-3,3a,4,8b-tetrahydroindeno[2,1-b]pyrrol-2-one], the half-life (Hydrolytic stability; 40° C., less polar isomer, read-out: Hydrolytic stability pH9 (t½), less polar isomer (converted)) was greater than 2.46 days, the half-life (Hydrolytic stability; 40° C., more polar isomer, read-out: Hydrolytic stability pH9 (t½), more polar isomer) was greater than 2.46 days and the “% remaining, less polar isomer” value (Hydrolytic stability; pH 9, 40° C., at 17.6 hours, less polar isomer) was 97.5% remaining at 17.6 hours. For the same compound, the “% remaining, more polar isomer” value (Hydrolytic stability; pH 9, 40° C., at 17.6 hours, more polar isomer) was 94.9% remaining at 17.6 hours, the “Hydrolytic stability compared with less polar isomer of P1” value (Hydrolytic stability; pH 9, less polar isomer, vs P1) was “more stable” and the “Slope (% vs control)” value (NK Falkone corn seeds [1]; Rate 0.4 μM) was 7.3 % vs control. The “T50 (% vs control)” value (NK Falkone corn seeds [1]; Rate 0.4 μM) was −0.7 % vs control, the “Slope (% vs control)” value (NK Falkone corn seeds [1]; Rate 2 μM) was 14.3 % vs control and the “T50 (% vs control)” value (NK Falkone corn seeds [1]; Rate 2 μM) was 1.3 % vs control. For the same compound, the “Slope (% vs control)” value (NK Falkone corn seeds [1]; Rate 10 μM) was 82.6 % vs control, the “T50 (% vs control)” value (NK Falkone corn seeds [1]; Rate 10 μM) was −8.5 % vs control and the “Slope (% vs control)” value (NK Falkone corn seeds [1]; Rate 50 μM) was 175.6 % vs control. The “T50 (% vs control)” value (NK Falkone corn seeds [1]; Rate 50 μM) was −10.1 % vs control, the “Slope compared with closest prior art compound P1” value (NK Falkone corn seeds [1]; at equivalent rates, vs P1) was “higher slope” and the “Slope (% vs control)” value (NK Falkone corn seeds [2]; Rate 0.4 μM) was −4 % vs control. For the same compound, the “T50 (% vs control)” value (NK Falkone corn seeds [2]; Rate 0.4 μM) was −0.5 % vs control, the “Slope (% vs control)” value (NK Falkone corn seeds [2]; Rate 2 μM) was 7.4 % vs control and the “T50 (% vs control)” value (NK Falkone corn seeds [2]; Rate 2 μM) was −1.2 % vs control. The “Slope (% vs control)” value (NK Falkone corn seeds [2]; Rate 10 μM) was 54.1 % vs control, the “T50 (% vs control)” value (NK Falkone corn seeds [2]; Rate 10 μM) was −9.3 % vs control and the “Slope (% vs control)” value (NK Falkone corn seeds [2]; Rate 50 μM) was 114.7 % vs control. The “T50 (% vs control)” value (NK Falkone corn seeds [2]; Rate 50 μM) was −6.1 % vs control, the “Slope (% vs control)” value (NK Falkone corn seeds [3]; Rate 0.4 μM) was 1.2 % vs control and the “T50 (% vs control)” value (NK Falkone corn seeds [3]; Rate 0.4 μM) was −0.5 % vs control. For the same compound, the “Slope (% vs control)” value (NK Falkone corn seeds [3]; Rate 2 μM) was −0.4 % vs control, the “T50 (% vs control)” value (NK Falkone corn seeds [3]; Rate 2 μM) was −0.2 % vs control and the “Slope (% vs control)” value (NK Falkone corn seeds [3]; Rate 10 μM) was 85.8 % vs control. The “T50 (% vs control)” value (NK Falkone corn seeds [3]; Rate 10 μM) was −11 % vs control, the “Slope (% vs control)” value (NK Falkone corn seeds [3]; Rate 50 μM) was 132.5 % vs control and the “T50 (% vs control)” value (NK Falkone corn seeds [3]; Rate 50 μM) was −15.9 % vs control. The “Slope compared with closest prior art compound P1” value (NK Falkone corn seeds [3]; at equivalent rates, vs P1) was “higher slope”, the “T50 compared with closest prior art compound P1” value (NK Falkone corn seeds [3]; at equivalent rates, vs P1) was “lower T50” and the “Slope (% vs control)” value (NK Falkone corn seeds [4]; Rate 0.4 μM) was 1 % vs control. The “T50 (% vs control)” value (NK Falkone corn seeds [4]; Rate 0.4 μM) was 0.8 % vs control, the “Slope (% vs control)” value (NK Falkone corn seeds [4]; Rate 2 μM) was 3.9 % vs control and the “T50 (% vs control)” value (NK Falkone corn seeds [4]; Rate 2 μM) was −0.2 % vs control. The “Slope (% vs control)” value (NK Falkone corn seeds [4]; Rate 10 μM) was 7.6 % vs control, the “T50 (% vs control)” value (NK Falkone corn seeds [4]; Rate 10 μM) was −3.6 % vs control and the “Slope (% vs control)” value (NK Falkone corn seeds [4]; Rate 50 μM) was 23.8 % vs control. For the same compound, the “T50 (% vs control)” value (NK Falkone corn seeds [4]; Rate 50 μM) was −4.0 % vs control, the “Slope compared with closest prior art compound P1” value (NK Falkone corn seeds [4]; at equivalent rates, vs P1) was “higher slope” and the “T50 compared with closest prior art compound P1” value (NK Falkone corn seeds [4]; at equivalent rates, vs P1) was “lower T50”.
